In patent US7109380B2, “Cyclopentenedione antifungal compounds and methods for their use” (The University of Mississippi, priority 2004, dated 2006):
Converted amounts (≈) assume the structure as drawn. Like-named read-outs stand apart in the source and are kept apart here.

Tests used:
[1] = test system: Germinating Conidia of Fusarium moniliforme; test: Lethality bioassay on germinating conidia; format: cell-based; conditions: for viability at 5 µM / viability at 10 µM / viability at 15 µM / viability at 20 µM / viability at 25 µM / viability at 30 µM: Fusarium verticillioides, read-out: Percent of Control Mean (viable colonies, Fusarium moniliforme)
Method: (§1) Pathogen production. Stock slant isolates of Aspergillus flavus, Fusarium oxysporum, and Fusarium moniliforme were grown on potato dextrose agar (Difco, Detroit, Mich.) slants for 7 days at room temperature (22° C.).
(§2) Inoculum preparation. Prior to a bioassay, 4 ml of 1% potato dextrose broth (PDB, Difco, Detroit, Mich.), pH 4.86, was added to a stock culture slant. The conidia were suspended by gentle agitation using the pipette tip and the population determined with the use of a hemocytometer. The conidia were then diluted to a 10^4 conidia/ml concentration and incubated for 8 hrs at 22° C. to obtain germinating conidia that were used in the bioassays.
(§3) Experimental design of lethality bioassays to determine activity of coruscanone A. Coruscanone A was diluted in 100% methanol with a further dilution in PDB to achieve a stock concentration of 0.032 μg/μl. Test mixtures of germinating conidia and compound 67 were made in sterile 500 μl Eppendorf (Brinkman, Westbury, N.Y.) microcentrifuge tubes. Final test concentrations of compound 67 were 0, 5, 10, 15, 20, 25, and 30 μM in a final volume of 250 μl (0.0635 μg/μl=1.0 μM/250 μl). After an incubation of 30 min, 16 hours and 24 hours at 22° C., aliquots (50 μl) of the each sample were spread on each of 4 PDA plates. The plates were incubated at 22° C. for 2 days and the developed, viable colonies were enumerated. Separate bioassays were also set up at the same time as that with the 30 min incubation period but incubated at 22° C. for 16 and 24 hours, respectively. These samples were spread as previously described and the developing, viable colonies enumerated. Bioassays were performed on three separate occasions per fungus (n=12). Statistical analysis was performed using SigmaPlot 9.0 (p<0.05).

[2] = test system: Germinating conidia of Aspergillus flavus; test: Lethality bioassay on germinating conidia; format: cell-based; conditions: for viability at 5 µM / viability at 10 µM / viability at 15 µM / viability at 20 µM / viability at 25 µM / viability at 30 µM: read-out: Percent of Control Mean (viable colonies, Aspergillus flavus)
Method: as §1, §2, §3

[3] = test system: Germinating Conidia of Fusarium oxysporum; test: Lethality bioassay on germinating conidia; format: cell-based; conditions: for viability at 5 µM / viability at 10 µM / viability at 15 µM / viability at 20 µM / viability at 25 µM / viability at 30 µM: read-out: Percent of Control Mean (viable colonies, Fusarium oxysporum)
Method: as §1, §2, §3

[4] = test system: M. intracellulare ATCC 23068; test: In vitro antibacterial assay (modified method of Franzblau, Alamar Blue); format: cell-based; conditions: Mycobacterium intracellulare
[5] = test system: C. glabrata ATCC 90030; test: In vitro antimicrobial assay (modified NCCLS), Candida media pH 4.5; format: cell-based, Candida glabrata; conditions: Nakaseomyces glabratus
[6] = test system: Candida albicans ATCC 90028; test: In vitro antifungal susceptibility testing (modified NCCLS method), media pH 7.3; format: cell-based
[7] = test system: Cryptococcus neoformans ATCC 90113; test: In vitro antifungal susceptibility testing (modified NCCLS method); format: cell-based; conditions: for MFC / MIC: ATCC90113

## COC(/C=C/c1ccccc1)=C1\C(=O)C=C(C)C1=O [Compound 1, coruscanone A]
[1]; Fusarium moniliforme, 16 and 24 hours of incubation
  Concentration at and above which significant and increasing lethality was observed: ≥ 5 µM
[1]; Fusarium moniliforme, 30 min incubation
  Lethality to germinating conidia (in words): not significantly lethal
[1]; 0.5 h
  viability at 5 µM: 106%
  viability at 10 µM: 85.4%
  viability at 15 µM: 114%
  viability at 20 µM: 102%
  viability at 25 µM: 99.7%
  viability at 30 µM: 90.8%
[1]; 16 h
  viability at 5 µM: 12.5%
  viability at 10 µM: 6.1%
  viability at 15 µM: 5.3%
  viability at 20 µM: 2.7%
  viability at 25 µM: 2.1%
  viability at 30 µM: 1.6%
[1]; 24 h
  viability at 5 µM: 38.6%
  viability at 10 µM: 7.4%
  viability at 15 µM: 4.2%
  viability at 20 µM: 3.9%
  viability at 25 µM: 2.2%
  viability at 30 µM: 1.3%
[2]; 0.5 h
  viability at 5 µM: 109%
  viability at 10 µM: 86.6%
  viability at 15 µM: 98%
  viability at 20 µM: 78.9%
  viability at 25 µM: 70%
  viability at 30 µM: 66.5%
[2]; 16 h
  viability at 5 µM: 75.2%
  viability at 10 µM: 76.4%
  viability at 15 µM: 45.4%
  viability at 20 µM: 39.1%
  viability at 25 µM: 30.5%
  viability at 30 µM: 19.5%
[2]; 24 h
  viability at 5 µM: 113%
  viability at 10 µM: 71.8%
  viability at 15 µM: 64.8%
  viability at 20 µM: 55.7%
  viability at 25 µM: 40.6%
  viability at 30 µM: 28.7%
[2]; after 24 hours of incubation, any tested concentration
  Lethality to germinating conidia (in words): no longer significantly lethal
[2]; incubated 30 min
  Lethality to germinating conidia (in words): not lethal
[3]; 0.5 h
  viability at 5 µM: 110%
  viability at 10 µM: 102%
  viability at 15 µM: 110%
  viability at 20 µM: 106%
  viability at 25 µM: 116%
  viability at 30 µM: 113%
[3]; 16 h
  viability at 5 µM: 104%
  viability at 10 µM: 79.7%
  viability at 15 µM: 41.2%
  viability at 20 µM: 30.8%
  viability at 25 µM: 14.5%
  viability at 30 µM: 7.7%
[3]; 16 hour incubation
  Concentration at which significant and increasing lethality begins: ≥ 15 µM
[3]; 24 h
  viability at 5 µM: 80.2%
  viability at 10 µM: 56.7%
  viability at 15 µM: 35.2%
  viability at 20 µM: 19.4%
  viability at 25 µM: 10.9%
  viability at 30 µM: 4.3%
[3]; 24 hour incubation
  Concentration at and above which significantly and increasingly lethal: ≥ 10 µM
[3]; any of the tested concentrations (time not given)
  Lethality to germinating conidia (in words): not lethal
[4]; ATCC23068, read-out: IC50 (50% inhibitory concentration)
  IC50: 1.5 µg/mL (≈ 5.9 µM)
[4]; ATCC23068, M. intracellulare ATCC 23068
  MIC: 2.5 µg/mL (≈ 9.83 µM)
[4]; ATCC23068, M. intracellulare ATCC 23068, read-out: MBC (Minimum Bactericidal Concentration)
  MBC: 5 µg/mL (≈ 19.7 µM)
[5]; ATCC90030, pH 4.5, read-out: IC50 (50% inhibitory concentration)
  IC50: 2.5 µg/mL (≈ 9.83 µM)
[5]; ATCC90030, C. glabrata ATCC 90030, pH 4.5, read-out: MIC
  MIC: 5 µg/mL (≈ 19.7 µM)
[6]
  Antifungal activity against C. albicans (in words): potent activity
[6]; ATCC90028, Candida albicans ATCC 90028, Table 1, read-out: MFC (Minimum Fungicidal Concentration)
  MFC: 1.56 µg/mL (≈ 6.13 µM)
[6]; ATCC90028, Candida albicans ATCC 90028, Table 1, read-out: MIC (Minimum Inhibitory Concentration)
  MIC: 0.78 µg/mL (≈ 3.07 µM)
[6]; listed as coruscanone A
  Antifungal activity against C. albicans (in words): comparable to or stronger than those of positive control drugs
[7]; Cryptococcus neoformans ATCC 90113, Table 1, read-out: MFC (Minimum Fungicidal Concentration)
  MFC: 6.25 µg/mL (≈ 24.6 µM)
[7]; Cryptococcus neoformans ATCC 90113, Table 1, read-out: MIC (Minimum Inhibitory Concentration)
  MIC: 6.25 µg/mL (≈ 24.6 µM)
[7]; Cryptococcus neoformans, ATCC90113, read-out: IC50 (50% inhibitory concentration)
  IC50: 1.5 µg/mL (≈ 5.9 µM)
[7]; Cryptococcus neoformans, Cr. neoformans ATCC 90113, Table 3, read-out: MFC
  MFC: 2.5 µg/mL (≈ 9.83 µM)
[7]; Cryptococcus neoformans, Cr. neoformans ATCC 90113, Table 3, read-out: MIC
  MIC: 2.5 µg/mL (≈ 9.83 µM)
